Measured values reported in ChEMBL document CHEMBL3044565, “Pharmacopore hypothesis generation of BACE-1 inhibitors and pharmacophore-driven identification of potent multi-target neuroprotective agents” (Med Chem Res, 2012).
*1 amine or outer side, *2 acyl side, *3 side chain or, on linkers, in order; H or OH if unused. Where a SMILES comes first, the peptide text is derived from it. [ ]: non-standard residue; d: D form. LeuΨ(S-CHOHCH2)Ala = CC(C)C[C@H](N[*:1])[C@@H](O)C[C@@H](C)C(=O)[*:2]

Assays:
Beta-secretase 1 [1] = target: T1, Beta-secretase 1 (Homo sapiens, UniProt P56817); assay: Inhibition of BACE1 (unknown origin) at 10 ug/ml after 1 hr by FRET assay
T1 sequence (P56817 whole entry): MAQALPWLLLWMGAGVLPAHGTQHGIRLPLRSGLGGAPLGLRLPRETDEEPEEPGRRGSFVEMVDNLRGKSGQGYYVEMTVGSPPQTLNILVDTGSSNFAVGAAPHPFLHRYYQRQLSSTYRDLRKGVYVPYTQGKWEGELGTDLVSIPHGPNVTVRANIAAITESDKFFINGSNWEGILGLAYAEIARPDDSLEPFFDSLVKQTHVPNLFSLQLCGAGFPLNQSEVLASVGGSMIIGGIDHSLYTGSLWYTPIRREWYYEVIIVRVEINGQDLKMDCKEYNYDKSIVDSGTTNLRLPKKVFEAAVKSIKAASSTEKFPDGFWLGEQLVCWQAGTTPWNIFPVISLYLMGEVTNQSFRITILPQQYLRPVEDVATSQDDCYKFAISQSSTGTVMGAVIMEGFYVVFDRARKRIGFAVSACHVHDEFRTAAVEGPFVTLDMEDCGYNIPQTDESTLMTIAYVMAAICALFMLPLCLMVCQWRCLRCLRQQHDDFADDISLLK

[2] = Neuroprotective activity in Homo sapiens (human) SH-SY5Y cells assessed as reduction of amyloid beta-induced cell death at 10 ug/ml inubated for 1 hr prior to amyloid beta induction measured after 48 hr by MTT assay; format: functional; set-up: scale not given: the % may be the effect or the level left
Beta-secretase 1 [3] = target: T1, Beta-secretase 1; assay: Inhibition of BACE1 (unknown origin)
Beta-secretase 1 [4] = target: T1, Beta-secretase 1; assay: Inhibition of Homo sapiens (human) Beta-secretase 1

Row | Structure (SMILES) | inhibition (Beta-secretase 1 [1]) | Activity [2] | Ki (Beta-secretase 1 [3]) | IC50 (Beta-secretase 1 [4])
1 | CCOC(=O)CCC(=O)NC1=NC2CCCCC2S1 (stereo not given) | 26.7% | 26.1% | – | –
2 | CC(C)C[C@H](NC(=O)[C@H](CC(N)=O)NC(=O)[C@@H](NC(=O)[C@@H](N)CC(=O)O)C(C)C)[C@@H](O)C[C@@H](C)C(=O)N[C@@H](C)C(=O)N[C@@H](CC(=O)O)C(=O)N[C@@H](Cc1ccccc1)C(=O)O (H-DVN[LeuΨ(S-CHOHCH2)Ala]ADF-OH) | – | – | 1.6 nM | 2 nM
3 | CCOC(=O)CCC(=O)Nc1nc(-c2ccccc2)cs1 | 31.8% | 45.5% | – | –
4 | O=C(Nc1nc(-c2ccccc2)cs1)c1ccncc1 | 29.1% | 8.2% | – | –
5 | COc1cc(/C=C/C(=O)Nc2nc(-c3ccccc3)cs2)cc(OC)c1 | 24.5% | – | – | –
6 | O=C(/C=C/c1ccccc1)Nc1nc(-c2ccccc2)cs1 | 23.6% | – | – | –
